In patent US20230242669A1, “ANTIBODY THAT BINDS ERBB-2 AND ERBB-3” (Merus N.V., priority 2014, published 2023):

Tests used:
JIMT-1 cells = assay: JIMT-1 proliferation in soft agar; format: cell-based, human; details: 10-0.003 µg/ml, 8 days
Method: To this aim 96 well suspension cell culture plates were prepared. 100 µL of the soft agar bottom layer (0.6% final concentration in complete medium) was poured and left to solidify. 50 µL of the soft agar top layer (0.4% final concentration) containing 10.000 JIMT-1 cells/well were then added on top, solidified and such 96 well plates incubated overnight at 37° C., 10% CO2. […] Subsequently, the assay was incubated in cell culture incubators for 8 days. Finally, the cells were incubated with Alamar Blue for 3-5 h at 37° C. and fluorescence intensity was determined (excitation: 560 nm; emission: 590 nm). […] (FIG. 8).

[1] = test system: SKBR-3 cells with FcγRIIIa reporter cells; assay: ADCC Reporter Bioassay (Promega); format: cell-based, human; details: SKBR-3, V158 effector cells
Method: In a different ADCC setup, the ADCC Reporter Bioassay (Promega) was used. The bioassay uses engineered Jurkat cells stably expressing the FcYRIIIa receptor, V158 (high affinity) or F158 (low affinity) variant, and an NFAT response element driving expression of firefly luciferase. The assay was validated by comparing data obtained with the ADCC Reporter Bioassay to the classical ^51Cr release assay. The ADCC assays were performed using the Promega ADCC Bioassay kit using 384 white well plates. In this experimental setup SKBR-3 cells were plated at a density of 1000 cells/well in 30 µl assay medium (RPMI with 4% low IgG serum) 20-24 H before the bioassay. The next day, the culture medium was removed. […] 10 µl antibody dilutions were added to the wells. The starting concentration of the antibody was 10 µg/ml and a 10 points semi-log fold serial dilution was generated to provide a full dose-response curve. Finally, 5 µl of ADCC Bioassay effector cells (15000 cells/well, V158) were added. The cells were incubated for 6 H at 37° C. Next, 15 µl BIO-Glo luciferase substrate was added and 5 minutes later luminescence was detected in a plate reader.
ADCC activity was measured by measuring luciferase activity. […] (FIG. 15)

JIMT-1 tumor = assay: JIMT-1 xenograft study; format: in vivo, CB.17 SCID mice; details: 2.5 and 25 mg/kg ip qwk × 4
Method: JIMT-1 human breast carcinoma cells were grown in DMEM containing 10% fetal bovine serum, 100 units/mL penicillin G sodium, 100 µg/mL streptomycin sulfate, 25 µg/mL gentamicin, and 2 mM glutamine until the time of implantation. At the day of implantation JIMT-1 breast cells were harvested during log phase growth and resuspended in cold PBS. […] Each mouse was injected subcutaneously in the right flank with 5 ×10^6 tumor cells (0.2 mL cell suspension). The tumors were measured with a caliper in two dimensions to monitor size as the mean volume twice per week. Once tumors had reached approximately 100-150 mm^3 in size animals were enrolled in the efficacy study. Outlier animals -tumor volume - were removed and the mice were randomly distributed into groups of 10 mice each. Mice were injected once weekly (antibody) or daily (lapatinib) for a period of four weeks. Details of the treatment groups are depicted in Table 11.
Tumor sizes were measured weekly by caliper measurement.

[2] = test system: HER2+, HER2++ and HER2+++ breast and gastric cancer cell lines; assay: FACS binding to cell lines with different HER2 levels; design: species or system human; details: HER2++ and HER2+ cells
Method: Cells were considered HER2+++ if they express millions of HER2 copies and/or are HER2 gene amplified. The following cell lines were used: MCF-7 (HER 2 +); MDA-MB-468 (HER2 +, MKN-45 (HER2 +), MDA-MB-175 (HER2+), MDA-MB-453 (HER2 ++), MDA-MB-361(HER2 ++), ZR-75-1(HER2 ++), JIMT-1 (HER2+++), BT-474 (HER2+++), SKBR-3 (HER2+++), SK-OV-3 (HER2+++), N87 (HER2+++). Cells of an exponentially grown culture were harvested by trypsin and diluted to 10^6 cells/ml in FACS buffer (PBS/0.5%BSA/0.5 mM EDTA). 1-2 10^5 cells were added to each well in a U-bottom 96 well plate. Cells were centrifuged for 2 minutes at 300 g at 4° C. Supernatant was discarded by inverting plate(s) above, followed by flicking once. 50 µl of each IgG sample was added in a serial dilution from 3.16 ng- 10 µg/ml and incubated for 1H on ice. Cells were centrifuged once, supernatant was removed and cells were washed twice with FACS buffer. 50 µl diluted 1:100 mouse anti human IgG gamma PE (INVITROGEN®) was added and incubated for 30-60 minutes on ice in the dark. […] Cells were analysed on a FACSCanto Flow cytometer in a HTS setting. The quantity of antibody bound was assessed by median fluorescence. Data were plotted and the area under the curve (AUC, a cumulative measurement of the median fluorescence intensity) was determined for each antibody per cell line tested (FIG. 26).

SKBR-3 and N87 cells = assay: Internalization of pH-sensitive dye labelled antibodies; format: cell-based, human; details: 100 nM labelled antibody, 1 ng/ml HRG

Substance: PB4188: bispecific HER2xHER3 IgG: HER2 arm MF3958, HER3 arm MF3178
- Inhibition of JIMT-1 proliferation (JIMT-1 cells): dose dependent inhibition of JIMT-1 proliferation
- ADCC potency compared to parental monoclonals or their combination [1]: higher ADCC potentency
- Efficacy on tumor size (JIMT-1 tumor): more potent than lapatinib or the combination pertuzumab and trastuzumab
- Binding affinity compared to trastuzumab (AUC of median fluorescence) [2]: higher binding affinity
- Internalization (SKBR-3 and N87 cells): internalizes to the same extend as trastuzumab
